Assay: gradient 5% acetonitrile 3 min, to 50% in 2 min, to 85% in 15 min, held 3 min, 100 µL/min
Details: column: Zorbax Extend-C18 2.1 x 50 mm; eluents: water / acetonitrile, 0.1% formic acid
Procedure, shortened: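 Using water and acetonitrile that each contained 0.1% formic acid, mixtures of ~100 pure standards were separated at 100 μL/min on a Zorbax Extend-C18 column (2.1 × 50 mm, 1.8 μm). The HPLC fed a quadrupole time-of-flight mass spectrometer working in positive and negative ionization mode, with dead and dwell volumes of 40 μL and 900 μL. Data were acquired over 3 months. Retention time was read from computationally picked adduct peaks after manual inspection of each.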

Row | RP-LC retention time [s] | SMILES
1 | 574 | O=C(NCCN1CCN(S(=O)(=O)c2ccccc2)CC1)c1c(F)cccc1Cl
2 | 686 | COc1cc(=O)n2c(c1C(=O)NC1CCc3ccccc31)CCCC2 (configuration not stated)
3 | 762 | COc1ccc(CCS(=O)(=O)Nc2ccc3c(c2)N(C(=O)C2CCCO2)CC3)cc1 (configuration not stated)
4 | 970 | Cc1cc(N2CCN(S(=O)(=O)c3ccc(-c4ccccc4)cc3)CC2)nc(NC2CCCCC2)n1
5 | 706 | CCc1cc(C(=O)N2CCN(c3ccccn3)CC2)nc2cc(-c3cccs3)nn12
6 | 943 | Cc1ccc(NS(=O)(=O)c2cc3c(s2)CCN(C(=O)C2CCC2)C3)c(C)c1
7 | 1040 | CCS(=O)(=O)N1CC(=O)N(Cc2ccc(Cl)cc2)C(C)(C(=O)NC2CCCCCCC2)C1 (configuration not stated)
8 | 860 | CC(C)N1C(=O)c2cccnc2Sc2cc(NC(=O)C3CCCC3)ccc21
9 | 740 | COc1ccccc1C(=O)Nc1c2c(nn1C(C)(C)C)CS(=O)(=O)C2
10 | 710 | O=C(NCc1cccs1)C1CC(=O)N(c2ccc3c(c2)CCN3C(=O)C2CC2)C1 (configuration not stated)
11 | 1110 | COc1cc(NC(=O)Nc2nccn(-c3ccc(C(C)C)cc3)c2=O)cc(OC)c1
12 | 686 | CCOCCCNC(=O)C1CCN(c2cc(=O)n(C)c(=O)n2CC)CC1
13 | 969 | COc1ccccc1C(=O)Nc1nc(-c2ccc3c(c2)N(C)C(=O)CO3)cs1
14 | 889 | CCc1ccc2[nH]c3c(c(=O)c2c1)CN(CC(=O)NCc1ccc(SC)cc1)CC3
15 | 688 | Cc1c(C(=O)NCCCN2CCOCC2)oc2ccc3c(c12)C(O)CC1(CCCCC1)O3 (configuration not stated)
16 | 782 | CCOc1cccc(CNC(=O)C2CCCN(c3ncnc4c3oc3ccccc34)C2)c1 (configuration not stated)
17 | 1130 | CCOc1ccc(-c2nc(C3CC(=O)N(c4ccc(Cl)cc4)C3)no2)cc1 (configuration not stated)
18 | 624 | O=C(C1CCC1)N1CCCC1c1nc(C2CCOCC2)no1 (configuration not stated)
19 | 657 | CCN(CC)CCNC(=O)C1CCN(c2nccnc2Sc2ccccc2)CC1
20 | 810 | COc1ccc(Cc2nnc3sc(-c4ccccc4)nn23)cc1
21 | 1030 | C=CCNC(=O)c1cn(CCC)nc1S(=O)(=O)N1CCN(c2ccccc2OCC)CC1
22 | 683 | CCN1C(=O)c2cccnc2Sc2cc(CNC(=O)c3cnccn3)ccc21

Row | RP-LC retention time [s] | SMILES
23 | 883 | O=C(Nc1ccc(F)cc1)C1CCCN(c2ccc3cc(S(=O)(=O)N4CCCCC4)ccc3n2)C1 (configuration not stated)
24 | 1010 | Brc1ccc(-c2nc(NCCC3=CCCCC3)c3ccccc3n2)cc1
25 | 1050 | CCCN1C(=O)c2cc(S(=O)(=O)NCc3ccccc3)ccc2Oc2cccnc21
26 | 590 | CCCN1CCN(C(=O)Cn2c3ccccc3c3cnn(C)c(=O)c32)CC1
27 | 660 | CN(C)C(=O)c1n[nH]c2c1CN(S(=O)(=O)c1ccccc1)CC2
28 | 816 | CCC(C)NC(=O)CCn1c(=O)c2ccccc2n2c(=O)n(Cc3cccc(F)c3)nc12 (configuration not stated)
29 | 726 | O=S(=O)(c1ccc(-c2nnc(C3CCCC3)o2)o1)N1CCN(c2ccccn2)CC1
30 | 933 | Cn1nnc2c(SCc3c(F)cccc3Cl)ncnc21
31 | 714 | CCOCCCNC(=O)CN1C(=O)CCn2nc(-c3cn(C)c4ccccc34)cc21
32 | 1260 | O=c1c2cc(-c3ccc(F)cc3)nn2cnn1Cc1nc(-c2ccc(Cl)c(F)c2)no1
33 | 986 | Cc1nn(-c2ccccc2)c(C)c1S(=O)(=O)N1CCC(C(=O)Nc2cccc(F)c2)CC1
34 | 807 | Cc1ccc(Nc2c(-c3ccc(Cl)cc3)nc3cc(C)ccn23)cc1
35 | 684 | O=C(NCCn1c(-c2ccc(F)cc2)nc2cccnc21)NCc1ccccc1
36 | 1120 | CC(C)(C)c1csc(-c2csc(S(=O)(=O)Nc3ccccc3F)c2)n1
37 | 805 | COCCNC(=O)C1CCN(c2nc3ccc(-c4ccc(OC)cc4)nc3s2)CC1
38 | 538 | Cn1cc(NC(=O)N2CCN(c3ccccn3)CC2)c2ccccc2c1=O
39 | 1160 | CCOc1ccc(NC(=O)Nc2nccn(-c3ccc(C(C)C)cc3)c2=O)cc1
40 | 652 | COC(=O)c1sc2ccccc2c1S(=O)(=O)N1CCC(C(N)=O)(N2CCCCC2)CC1
41 | 1330 | CCOc1ccc(-c2nc(COc3cc(C(F)(F)F)c4c(C)nn(C)c4n3)c(C)o2)cc1OC
42 | 701 | O=C(COc1ccccc1F)Nc1nnc(-c2ccsc2)o1
43 | 873 | Cc1cc2c(cc1S(=O)(=O)N1CCCC1C(=O)Nc1ccc(C(F)(F)F)cc1)OCC(=O)N2 (configuration not stated)
44 | 934 | O=C(COc1ccc(F)cc1)NC1(c2nc(-c3ccncc3)no2)CCCCC1

Row | RP-LC retention time [s] | SMILES
45 | 811 | CCc1ccc(C(=O)NC2CCN(c3ccccc3)C2=O)cc1 (configuration not stated)
46 | 566 | O=C(N[C@@H]1CN(c2ncccn2)C[C@H]1CO)c1ccco1
47 | 651 | O=C(CS(=O)(=O)c1c[nH]c2ccccc12)Nc1ccc2c(c1)OCCO2
48 | 862 | Cc1ccc(NC(=O)C2CCCN(C(=O)C3Sc4ccccc4NC3=O)C2)cc1C (configuration not stated)
49 | 830 | CCC(=O)Nc1ccc(S(=O)(=O)NCCOc2ccc3c(c2)OCO3)cc1
50 | 939 | O=C(CCSc1ccc(F)cc1)Nc1ccccc1-c1nc2ccccc2[nH]1
51 | 1160 | Cc1ccc(-c2ccc(-n3nc(C)c(S(=O)(=O)NCC(C)C)c3C)nn2)cc1
52 | 818 | O=C(CSc1nc(-c2ccccc2Cl)ns1)Nc1nccs1
53 | 1260 | Cc1nn(-c2nc(-c3ccc(Cl)cc3)cs2)c(C)c1CC(=O)Nc1ccccc1F
54 | 684 | COCCCNC(=O)C1CCN(Cc2cc3ccccc3n2Cc2ccccc2)CC1
55 | 831 | CC1(C(=O)NCc2ccccc2)CCCN(C(=O)NCc2ccc(F)cc2)C1 (configuration not stated)
56 | 656 | CCCNC(=O)C1CCN(c2ccc(SCC(=O)Nc3cc(C)ccc3C)nn2)CC1
57 | 919 | Cc1cc(C)cc(N2C(=O)CN(S(C)(=O)=O)CC2(C)C(=O)NCc2ccc(Cl)cc2)c1 (configuration not stated)
58 | 1030 | COc1cc(NC(=O)c2sc(-c3cn(C(C)C)c4ncccc34)nc2C)cc(OC)c1
59 | 863 | O=C(C1CCCC1)N1CCC(c2noc(-c3ccncc3)n2)C1 (configuration not stated)
60 | 878 | CCC(C(=O)Nc1ccc(Cl)cc1)n1cnc2nc3c(cc2c1=O)CCCC3 (configuration not stated)
61 | 572 | O=C(NC1CC1)c1ccc(N2CCC(NCc3ccc(Br)cc3)C2)nc1 (configuration not stated)
62 | 866 | Cc1ccc(CN2CCN(CC(=O)N3CCN(c4cccc(Cl)c4)CC3)C(=O)C2=O)cc1
63 | 875 | CCOc1ccc(NC(=O)CCc2cccc3[nH]ccc23)cc1
64 | 1010 | CCOc1ccc(CNC(=O)c2c(C)sc3ccn(CC(C)C)c(=O)c23)cc1
65 | 698 | CCOC(=O)Cc1ccc(NC(=O)Nc2cccn3cnnc23)cc1
66 | 828 | CC(=O)Nc1cccc(C2OC(c3cc(Br)ccc3OC(C)=O)=NN2C(C)=O)c1 (configuration not stated)

Row | RP-LC retention time [s] | SMILES
67 | 810 | CC1CCCCN1C(=O)c1ccc2c(c1)Sc1ncccc1C(=O)N2C(C)C (configuration not stated)
68 | 701 | O=S(=O)(Nc1ccc(Cn2cncn2)cc1)c1ccc(F)cc1
69 | 778 | O=C(Cn1ccn2nc(-c3ccc(F)cc3)c(CO)c2c1=O)NCc1ccc2c(c1)OCO2
70 | 753 | COc1ccccc1NC(=O)C1CCN(C(=O)C2Sc3ccccc3NC2=O)CC1 (configuration not stated)
71 | 855 | Cn1cc(C2=CCN(C(=O)Cc3ccccc3F)CC2)c2cccnc21
72 | 764 | CNC(=O)c1ccccc1Nc1cc(Nc2ccc(N3CCOCC3)cc2OC)ncc1C(F)(F)F
73 | 788 | O=C(CN1CCN(Cc2ccccc2)C1=O)N1CCN(c2ccccc2)CC1
74 | 650 | COc1ccc(NS(=O)(=O)c2cc3n(c2)CCCN(C)C3=O)cc1
75 | 557 | O=C(c1ccsc1)N1CCC2(CC1)CC(N1CCOCC1)CCO2 (configuration not stated)
76 | 1180 | O=C(NCc1cc(F)cc(F)c1)c1c(O)c2cccnc2n(-c2ccc(F)cc2)c1=O
77 | 720 | Cc1cc(N2CCOCC2)nc(N2CCN(C(=O)c3ccc(-c4ccccc4)cc3)CC2)n1
78 | 868 | Cc1ccc(NC(=O)C2CCCN(c3ncnc4c3oc3ccccc34)C2)cc1C (configuration not stated)
79 | 612 | CC1(c2noc(C3CCOCC3)n2)CCN(Cc2c(F)cccc2Cl)CC1
80 | 699 | C=CCn1c(NCc2ccccc2Cl)nc2ccccc21
81 | 1120 | CC1Oc2ccccc2OC1C(=O)Nc1sc2c(c1C#N)CCCC2 (configuration not stated)
82 | 680 | COc1ccc(C(=O)Nc2c(-c3ccccc3)nc3cc(C)ccn23)c(OC)c1
83 | 982 | Cc1ccc(S(=O)(=O)C2=C(O)C(=O)N(Cc3ccco3)C2c2ccc(Cl)cc2)cc1 (configuration not stated)
84 | 611 | CCCNC(=O)CSc1nc2nc(C)cc(C)n2n1
85 | 791 | CC(C)c1ccc(S(=O)(=O)N2CCC3(CC2)NCCN=C3NCc2ccccc2)cc1

Row | SMILES | RP-LC retention time [s]
86 | O=C(c1ccco1)N1[C@H]2CC[C@@H]1c1cnc(-c3ccc(F)cc3)nc1C2 | 858
87 | CCc1nc2cc(N3CCC(C(=O)N4CCC5(CC4)OCCO5)CC3)cnc2nc1CC | 723

From the METLIN SMRT retention time set (Domingo-Almenara et al. 2019)
